According to the supplement of paper PMC10627819:

Key:
S. pneumoniae D39V [1] = assay: fitness (endpoint OD595 vs no drug) (fraction); higher = more growth
In short: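 Bacterial fitness was scored as optical density at the stationary-phase transition relative to the robust mean of no-drug control wells. Scores are capped at 1. The growth data were OD595 readings every 30 min for 14 h at 37 °C, background-subtracted against the first reading, from 384-well plates inoculated at OD595 0.01 in TSB, LB Lennox or CY.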

B. subtilis 168 = assay: Bliss interaction score (quartile over a dose matrix) (fitness difference); higher = more antagonism (negative = synergy)
In short: (§1)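 Fitness here means normalised growth, inferred for single drugs from the combination data. Growth was OD595 at entry into stationary phase, divided by the plate's robust no-drug mean and capped at 1. The Bliss score is observed minus expected fitness, with the expectation being the product, and its quartiles span technical, biological and donor/recipient replicates.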

S. aureus DSM 20231 = assay: as above
In short: as §1

S. aureus Newman = assay: as above
In short: as §1

S. pneumoniae D39V [2] = assay: as above
In short: as §1
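Wherever Bliss interaction score (quartile over a dose matrix) is given: first quartile when negative (synergy) and third quartile when positive (antagonism).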
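Wherever fitness (endpoint OD595 vs no drug) is given: OD595 on entry to stationary phase over no-drug wells; at most 1.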

CC[C@H]1OC(=O)[C@H](C)[C@@H](O[C@H]2C[C@@](C)(OC)[C@@H](O)[C@H](C)O2)[C@H](C)[C@@H](O[C@@H]2O[C@H](C)C[C@H](N(C)C)[C@H]2O)[C@](C)(OC)C[C@@H](C)C(=O)[C@H](C)[C@@H](O)[C@]1(C)O [Clarithromycin] + CN(N=O)C(=O)N[C@@H](C=O)[C@@H](O)[C@H](O)[C@H](O)CO [Streptozotocin]
fitness, S. pneumoniae D39V [1], one replicate
Details	first compound 0.007812 µg/mL	first compound 0.01562 µg/mL	first compound 0.03125 µg/mL	first compound 0.0625 µg/mL	first compound 0.125 µg/mL	first compound 0.25 µg/mL
partner 1.2 µg/mL	0.873	0.804	0.673	0.674	0.263	0.0915
partner 2.4 µg/mL	0.877	0.815	0.672	0.713	0.32	0.134
partner 4.8 µg/mL	0.87	0.802	0.661	0.537	0.0252	0

fitness, S. pneumoniae D39V [1]
Details	first compound 0.07 µg/mL	first compound 0.14 µg/mL	first compound 0.28 µg/mL
partner 1.2 µg/mL	0.115	0.0648	0.031
partner 2.4 µg/mL	0.119	0.0981	0.0724
partner 4.8 µg/mL	0.0916	0.0774	0.033

Details	Bliss interaction score
B. subtilis 168	0.0503
S. aureus DSM 20231	0.0361
S. aureus Newman	-0.0313
S. pneumoniae D39V [2]	0.0525

C[C@@H](O)[C@H]1C(=O)N2C(C(=O)O)=C(SCCNC=N)C[C@H]12 [Imipenem] + CN(C)c1cc(NC(=O)CNC(C)(C)C)c(O)c2c1C[C@H]1C[C@H]3[C@H](N(C)C)C(O)=C(C(N)=O)C(=O)[C@@]3(O)C(O)=C1C2=O [Tigecycline]
fitness, S. pneumoniae D39V [1]
Details	first compound 0.005 µg/mL	first compound 0.0065 µg/mL	first compound 0.01 µg/mL	first compound 0.013 µg/mL	first compound 0.02 µg/mL	first compound 0.026 µg/mL
partner 0.65 µg/mL	0.925	0.992	0.898	0.999	0.932	0.863
partner 1.3 µg/mL	0.922	0.979	0.874	0.893	0.938	0.946
partner 2.6 µg/mL	0.859	0.994	0.87	0.943	0.877	0.956

Details	Bliss interaction score
B. subtilis 168	-0.0658
S. aureus DSM 20231	0.0348
S. aureus Newman	-0.0535
S. pneumoniae D39V [2]	0.0689

CC[C@H]1OC(=O)[C@H](C)[C@@H](O[C@H]2C[C@@](C)(OC)[C@@H](O)[C@H](C)O2)[C@H](C)[C@@H](O[C@@H]2O[C@H](C)C[C@H](N(C)C)[C@H]2O)[C@](C)(OC)C[C@@H](C)C(=O)[C@H](C)[C@@H](O)[C@]1(C)O [Clarithromycin] + COc1cccc2c1C(=O)c1c(O)c3c(c(O)c1C2=O)C[C@@](O)(C(=O)CO)C[C@@H]3O[C@H]1C[C@H](N)[C@H](O)[C@H](C)O1 [Doxorubicin]
fitness, S. pneumoniae D39V [1], one replicate
Details	first compound 0.007812 µg/mL	first compound 0.01562 µg/mL	first compound 0.03125 µg/mL
partner 0.25 µg/mL	0.866	0.825	0.633
partner 0.5 µg/mL	0.841	0.798	0.621
partner 1 µg/mL	0.794	0.777	0.608

fitness, S. pneumoniae D39V [1]
Details	first compound 0.0625 µg/mL	first compound 0.07 µg/mL	first compound 0.125 µg/mL	first compound 0.14 µg/mL	first compound 0.25 µg/mL	first compound 0.28 µg/mL
partner 0.25 µg/mL	0.457	0.112	0.277	0.0456	0.077	0.0403
partner 0.5 µg/mL	0.495	0.106	0.295	0.0366	0.107	0.0281
partner 1 µg/mL	0.411	0.103	0.188	0.0523	0.0684	0.0955

Details	Bliss interaction score
B. subtilis 168	0.0718
S. aureus DSM 20231	0.0858
S. aureus Newman	0.105
S. pneumoniae D39V [2]	-0.0578

CCC[C@@H]1C[C@@H](C(=O)N[C@@H]([C@H]2O[C@H](SC)[C@H](O)[C@@H](O)[C@H]2O)[C@H](C)Cl)N(C)C1 [Clindamycin] + CO[C@H]1/C=C/O[C@@]2(C)Oc3c(C)c(O)c4c(O)c(c(/C=N/N5CCN(C)CC5)c(O)c4c3C2=O)NC(=O)/C(C)=C\C=C\[C@H](C)[C@H](O)[C@@H](C)[C@@H](O)[C@@H](C)[C@H](OC(C)=O)[C@@H]1C [Rifampicin]
fitness, S. pneumoniae D39V [1]
Details	first compound 0.0125 µg/mL	first compound 0.015 µg/mL	first compound 0.025 µg/mL	first compound 0.03 µg/mL	first compound 0.05 µg/mL	first compound 0.06 µg/mL
partner 0.025 µg/mL	0.795	–	0.539	–	0.273	–
partner 0.05 µg/mL	0.811	–	0.523	–	0.215	0.226
partner 0.1 µg/mL	0.341	0.267	0.223	0.212	0.15	0.164

fitness, S. pneumoniae D39V [1], one replicate
Details	first compound 0.015 µg/mL	first compound 0.03 µg/mL	first compound 0.06 µg/mL
partner 0.025 µg/mL	0.702	0.496	0.229
partner 0.2 µg/mL	0	0	0

Details	Bliss interaction score
B. subtilis 168	-0.223
S. aureus DSM 20231	0.027
S. aureus Newman	0.0465
S. pneumoniae D39V [2]	-0.077

CC[C@H]1OC(=O)[C@H](C)[C@@H](O[C@H]2C[C@@](C)(OC)[C@@H](O)[C@H](C)O2)[C@H](C)[C@@H](O[C@@H]2O[C@H](C)C[C@H](N(C)C)[C@H]2O)[C@](C)(OC)C[C@@H](C)C(=O)[C@H](C)[C@@H](O)[C@]1(C)O [Clarithromycin] + Clc1ccc(COC(Cn2ccnc2)c2ccc(Cl)cc2Cl)c(Cl)c1 [Miconazole]
fitness, S. pneumoniae D39V [1], one replicate
Details	first compound 0.007812 µg/mL	first compound 0.01562 µg/mL	first compound 0.03125 µg/mL
partner 1.25 µg/mL	0.924	0.848	0.664
partner 2.5 µg/mL	0.9	0.855	0.66
partner 5 µg/mL	0.869	0.847	0.556

S. pneumoniae D39V [1]
Details	fitness
first compound 0.0625 µg/mL, partner 1.073 µg/mL	0.747
first compound 0.0625 µg/mL, partner 2.145 µg/mL	0.638
first compound 0.0625 µg/mL, partner 4.29 µg/mL	0.635
first compound 0.07 µg/mL, partner 1.25 µg/mL	0.167
first compound 0.07 µg/mL, partner 2.5 µg/mL	0.185
first compound 0.07 µg/mL, partner 5 µg/mL	0.107
first compound 0.125 µg/mL, partner 4.29 µg/mL	0.448
first compound 0.14 µg/mL, partner 1.25 µg/mL	0.117
first compound 0.14 µg/mL, partner 2.5 µg/mL	0.151
first compound 0.14 µg/mL, partner 5 µg/mL	0.0925
first compound 0.25 µg/mL, partner 1.073 µg/mL	0.0979
first compound 0.25 µg/mL, partner 2.145 µg/mL	0.0742
first compound 0.25 µg/mL, partner 4.29 µg/mL	0.218
first compound 0.28 µg/mL, partner 1.25 µg/mL	0.0568
first compound 0.28 µg/mL, partner 2.5 µg/mL	0.122
first compound 0.28 µg/mL, partner 5 µg/mL	0.0835

Details	Bliss interaction score
B. subtilis 168	0.0897
S. aureus DSM 20231	0.0854
S. aureus Newman	0.0558
S. pneumoniae D39V [2]	0.0979

C[C@@H](O)[C@H]1C(=O)N2C(C(=O)O)=C(SCCNC=N)C[C@H]12 [Imipenem] + CN(C)C(=O)C(CCN1CCC(O)(c2ccc(Cl)cc2)CC1)(c1ccccc1)c1ccccc1 [Loperamide]
fitness, S. pneumoniae D39V [1]
Details	first compound 0.005 µg/mL	first compound 0.0065 µg/mL	first compound 0.01 µg/mL	first compound 0.013 µg/mL	first compound 0.02 µg/mL	first compound 0.026 µg/mL
partner 17.14 µg/mL	0.926	–	0.937	–	0.952	–
partner 20 µg/mL	–	≥ 1	–	≥ 1	–	0.986
partner 34.28 µg/mL	0.907	–	0.947	–	0.942	–
partner 40 µg/mL	–	≥ 1	–	≥ 1	–	0.988
partner 80 µg/mL	–	0.582	–	0.582	–	0.625

S. pneumoniae D39V [1], partner 68.57 µg/mL, one replicate
Details	fitness
first compound 0.005 µg/mL	0.935
first compound 0.01 µg/mL	0.93
first compound 0.02 µg/mL	0.94

Details	Bliss interaction score
B. subtilis 168	-0.203
S. aureus DSM 20231	0.0662
S. aureus Newman	0.0304
S. pneumoniae D39V [2]	0.0901

O=C(O[C@@H]1Cc2c(O)cc(O)cc2O[C@@H]1c1cc(O)c(O)c(O)c1)c1cc(O)c(O)c(O)c1 [EGCG] + C[C@@H](O)[C@H]1C(=O)N2C(C(=O)O)=C(SCCNC=N)C[C@H]12 [Imipenem]
fitness, S. pneumoniae D39V [1]
Details	partner 0.005 µg/mL	partner 0.0065 µg/mL	partner 0.01 µg/mL	partner 0.013 µg/mL	partner 0.02 µg/mL	partner 0.026 µg/mL
first compound 12.5 µg/mL	0.952	0.863	0.875	0.78	0.9	0.563
first compound 25 µg/mL	0.985	0.833	0.971	0.959	0.842	–
first compound 50 µg/mL	0.912	0.896	0.939	0.799	≥ 1	0.899

Details	Bliss interaction score
B. subtilis 168	0.185
S. aureus DSM 20231	-0.0357
S. aureus Newman	0.0318
S. pneumoniae D39V [2]	0.0607
